In experiment [1] the target is Sodium-dependent noradrenaline transporter (Homo sapiens, UniProt P23975).
The next experiment addresses Adenosine receptor A2a (Homo sapiens, UniProt P29274).
Experiment [2] deals with T1, Type-1 angiotensin II receptor (Homo sapiens, UniProt P30556).
T1 sequence (P30556 whole entry): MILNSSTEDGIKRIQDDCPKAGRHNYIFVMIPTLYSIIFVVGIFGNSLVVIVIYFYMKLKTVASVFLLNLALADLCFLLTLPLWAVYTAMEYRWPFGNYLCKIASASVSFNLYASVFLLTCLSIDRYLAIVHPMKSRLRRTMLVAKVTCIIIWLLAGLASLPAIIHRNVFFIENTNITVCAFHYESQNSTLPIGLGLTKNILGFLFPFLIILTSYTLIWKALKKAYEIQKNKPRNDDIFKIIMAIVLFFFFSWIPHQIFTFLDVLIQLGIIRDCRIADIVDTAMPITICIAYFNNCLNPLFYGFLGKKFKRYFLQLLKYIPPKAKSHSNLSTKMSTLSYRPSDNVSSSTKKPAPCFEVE

Experiment [3] has as its target T2, 5-hydroxytryptamine receptor 1A (Homo sapiens, UniProt P08908).
T2 sequence (P08908 whole entry): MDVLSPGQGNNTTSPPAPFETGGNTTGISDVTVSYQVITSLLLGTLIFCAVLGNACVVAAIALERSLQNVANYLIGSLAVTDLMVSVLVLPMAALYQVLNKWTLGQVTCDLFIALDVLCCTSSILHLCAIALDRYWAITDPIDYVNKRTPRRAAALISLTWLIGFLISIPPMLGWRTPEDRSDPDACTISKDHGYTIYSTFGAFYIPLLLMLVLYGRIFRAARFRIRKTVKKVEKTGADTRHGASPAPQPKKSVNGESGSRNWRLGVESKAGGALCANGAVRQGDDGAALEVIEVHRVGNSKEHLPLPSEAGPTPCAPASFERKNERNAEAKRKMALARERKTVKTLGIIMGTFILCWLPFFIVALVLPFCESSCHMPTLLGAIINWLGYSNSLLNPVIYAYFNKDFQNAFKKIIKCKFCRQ
It counts as functional, cell-based.

The target in a further experiment is T3, Progesterone receptor (Homo sapiens, UniProt P06401).
T3 sequence (P06401 whole entry): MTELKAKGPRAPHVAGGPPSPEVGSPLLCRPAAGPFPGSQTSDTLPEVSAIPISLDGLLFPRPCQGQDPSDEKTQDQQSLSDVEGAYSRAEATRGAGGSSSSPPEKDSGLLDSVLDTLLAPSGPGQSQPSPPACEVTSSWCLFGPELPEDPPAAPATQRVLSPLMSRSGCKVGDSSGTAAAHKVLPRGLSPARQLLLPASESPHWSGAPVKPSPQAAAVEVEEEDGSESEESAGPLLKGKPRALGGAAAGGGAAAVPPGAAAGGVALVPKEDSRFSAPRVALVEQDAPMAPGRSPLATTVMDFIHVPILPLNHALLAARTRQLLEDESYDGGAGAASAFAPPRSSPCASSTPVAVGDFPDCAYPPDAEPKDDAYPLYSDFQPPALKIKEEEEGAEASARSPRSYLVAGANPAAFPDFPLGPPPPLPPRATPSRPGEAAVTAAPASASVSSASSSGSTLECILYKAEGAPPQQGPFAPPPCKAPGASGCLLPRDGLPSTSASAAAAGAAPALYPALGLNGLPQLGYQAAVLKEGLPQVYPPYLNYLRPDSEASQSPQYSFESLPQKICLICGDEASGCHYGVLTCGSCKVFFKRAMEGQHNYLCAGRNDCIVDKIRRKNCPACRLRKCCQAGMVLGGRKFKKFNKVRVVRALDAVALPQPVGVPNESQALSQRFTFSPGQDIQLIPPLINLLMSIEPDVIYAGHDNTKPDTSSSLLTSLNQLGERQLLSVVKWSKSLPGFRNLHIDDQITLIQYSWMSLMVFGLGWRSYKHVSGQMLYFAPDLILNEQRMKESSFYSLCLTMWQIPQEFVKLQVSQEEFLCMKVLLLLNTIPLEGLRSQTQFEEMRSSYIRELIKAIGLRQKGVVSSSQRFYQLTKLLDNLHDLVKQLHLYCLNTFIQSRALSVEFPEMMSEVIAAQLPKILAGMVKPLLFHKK
It counts as functional.

A further experiment has as its target D(3) dopamine receptor (Homo sapiens, UniProt P35462).

By AC50 is commonly meant the concentration at which the activity in the assay is half-maximal.
Further: assay procedure not described here.

Sequence of Adenosine receptor A2a (P29274 whole entry): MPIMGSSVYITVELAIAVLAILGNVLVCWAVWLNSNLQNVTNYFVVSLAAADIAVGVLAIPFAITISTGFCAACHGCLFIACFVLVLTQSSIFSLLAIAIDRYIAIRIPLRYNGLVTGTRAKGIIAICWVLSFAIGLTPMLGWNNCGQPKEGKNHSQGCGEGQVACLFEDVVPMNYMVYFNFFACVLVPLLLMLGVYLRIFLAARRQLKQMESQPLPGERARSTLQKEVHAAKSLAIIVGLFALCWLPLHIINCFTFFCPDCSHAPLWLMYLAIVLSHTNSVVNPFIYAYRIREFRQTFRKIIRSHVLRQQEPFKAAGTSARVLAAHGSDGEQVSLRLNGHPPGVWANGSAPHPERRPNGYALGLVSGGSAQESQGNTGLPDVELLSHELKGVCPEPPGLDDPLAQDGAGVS
Sequence of D(3) dopamine receptor (P35462 whole entry): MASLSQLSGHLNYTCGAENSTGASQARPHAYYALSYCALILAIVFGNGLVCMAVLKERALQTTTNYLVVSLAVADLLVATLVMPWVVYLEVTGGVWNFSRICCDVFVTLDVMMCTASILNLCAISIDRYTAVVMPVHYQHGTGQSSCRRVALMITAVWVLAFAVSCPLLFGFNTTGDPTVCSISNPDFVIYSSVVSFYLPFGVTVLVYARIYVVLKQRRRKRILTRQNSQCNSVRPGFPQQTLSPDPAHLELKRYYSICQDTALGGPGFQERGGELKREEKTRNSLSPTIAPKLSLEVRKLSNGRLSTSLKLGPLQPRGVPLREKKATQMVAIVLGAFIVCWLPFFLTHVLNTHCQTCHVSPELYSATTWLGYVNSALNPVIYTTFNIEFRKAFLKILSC
Sequence of Sodium-dependent noradrenaline transporter (P23975 whole entry): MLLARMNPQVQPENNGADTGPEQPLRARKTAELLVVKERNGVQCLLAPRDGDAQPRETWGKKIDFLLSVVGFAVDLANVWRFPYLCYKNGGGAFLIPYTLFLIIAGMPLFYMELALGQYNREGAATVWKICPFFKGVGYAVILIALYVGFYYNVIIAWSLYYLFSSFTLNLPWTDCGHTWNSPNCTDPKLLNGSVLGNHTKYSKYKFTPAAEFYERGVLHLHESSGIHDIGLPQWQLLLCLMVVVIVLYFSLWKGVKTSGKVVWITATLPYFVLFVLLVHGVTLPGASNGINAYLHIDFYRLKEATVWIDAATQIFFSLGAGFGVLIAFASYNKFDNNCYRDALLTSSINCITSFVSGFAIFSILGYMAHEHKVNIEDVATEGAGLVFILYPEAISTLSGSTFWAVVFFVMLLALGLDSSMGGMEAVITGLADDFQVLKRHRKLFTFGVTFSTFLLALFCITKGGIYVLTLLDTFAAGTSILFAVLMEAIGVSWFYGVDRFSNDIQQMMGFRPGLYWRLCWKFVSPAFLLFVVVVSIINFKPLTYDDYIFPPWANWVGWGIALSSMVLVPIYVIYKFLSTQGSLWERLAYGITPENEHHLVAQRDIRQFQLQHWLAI

For `Cc1cc2c(cc1S(N)(=O)=O)S(=O)(=O)CCC2`, the concentration at half-maximal activity (AC50) in experiment [1] was above 30 µM.
Regarding `C[C@H](N[C@@H](CCc1ccccc1)C(=O)O)C(=O)N1Cc2ccccc2C[C@H]1C(=O)O`, the AC50 in experiment [1] was above 30 µM.
Turning to `O=C(O)[C@@H]1C[C@@H](O)CN1`, the AC50 in experiment [1] is above 30 µM.
For the molecule `CN(C)Cc1nnc2n1-c1ccc(Cl)cc1C(c1ccccc1)=NC2` [ADINAZOLAM], the AC50 is above 10 µM at Adenosine receptor A2a; above 10 µM in experiment [2]; above 10 µM in experiment [3]; above 10 µM on Progesterone receptor; above 30 µM on D(3) dopamine receptor.
Molecule `CC1(C)S[C@@H]2[C@H](/N=C/N3CCCCCC3)C(=O)N2[C@H]1C(=O)O` [AMDINOCILLIN] showed an AC50 in experiment [1] above 30 µM.
Molecule `CC(=O)[C@]1(N)Cc2c(O)c3c(c(O)c2[C@@H](O[C@H]2C[C@H](O)[C@H](O)CO2)C1)C(=O)c1ccccc1C3=O` [AMRUBICIN] yielded an AC50 in experiment [1] above 30 µM.
Still for that read-out and setting: next, `NC(=O)[C@@H]1CC[C@@H]2CN1C(=O)N2OS(=O)(=O)O` [AVIBACTAM]: above 30 µM.
Take `CC(=O)OC[C@H]1O[C@@H](n2ncc(=O)[nH]c2=O)[C@H](OC(C)=O)[C@@H]1OC(C)=O` [AZARIBINE]: in experiment [1], the AC50 is above 30 µM.
As for `CCOC(=O)c1ccc(N)cc1` [BENZOCAINE], the AC50 was above 10 µM at Adenosine receptor A2a; above 10 µM in experiment [2]; above 10 µM in experiment [3]; above 10 µM at Progesterone receptor; above 30 µM at D(3) dopamine receptor.
In experiment [1], `CC(C)(C)NC(=O)N[C@H](C(=O)N1C[C@H]2[C@@H]([C@H]1C(=O)NC(CC1CCC1)C(=O)C(N)=O)C2(C)C)C(C)(C)C` (some centres undefined) [BOCEPREVIR] gave a half-maximal activity concentration (AC50) above 30 µM.
`C=C1CC[C@H](O)C/C1=C/C=C1\CCC[C@]2(C)[C@@H]([C@H](C)CCCC(C)C)CC[C@@H]12` [CHOLECALCIFEROL] yielded an AC50 in experiment [1] above 10 µM.
On the same count and under the same terms, under `Cc1ncc2c(c1O)COC2c1ccc(Cl)cc1` (centres undefined) [CICLETANINE] stands above 30 µM; under `Cc1cn([C@H]2O[C@@H](CO)[C@H](O)[C@H]2F)c(=O)[nH]c1=O` [CLEVUDINE], above 30 µM; under `N#Cc1ccc(Oc2ccc3c(c2)COB3O)cc1` [CRISABOROLE], above 30 µM.
Consider `C/C=C(/C(=C/C)c1ccc(O)cc1)c1ccc(O)cc1` [DIENESTROL], for which the concentration at half-maximal activity (AC50) at Adenosine receptor A2a was above 30 µM; in experiment [2], above 10 µM; in experiment [3], above 10 µM; at Progesterone receptor, above 30 µM; on D(3) dopamine receptor, above 30 µM.
The molecule `CC(=O)[C@H]1CC[C@H]2[C@@H]3C=CC4=CC(=O)CC[C@@]4(C)[C@@H]3CC[C@]12C` [DYDROGESTERONE] showed an AC50 in experiment [1] above 30 µM.
Regarding `CC(=O)O[C@H]1Cc2ccccc2N(C(N)=O)c2ccccc21` [ESLICARBAZEPINE ACETATE], the AC50 in experiment [1] is above 30 µM.
In experiment [1], `CC(O)(P(=O)(O)O)P(=O)(O)O` [ETIDRONIC ACID] displayed an AC50 above 30 µM.
On to `Cc1ccc(S(=O)(=O)NC(=O)NC2CCCCC2)cc1` [GLYCYCLAMIDE], for which the AC50 in experiment [1] was above 30 µM.
For `COc1ccc([C@@H]2CC(=O)c3c(O)cc(O)cc3O2)cc1O` [HESPERETIN], the AC50 at Adenosine receptor A2a is above 10 µM; in experiment [2] it was above 10 µM; in experiment [3], above 10 µM; on Progesterone receptor, above 10 µM; on D(3) dopamine receptor it was above 30 µM.
`CN1CCCN(C(c2ccccc2)c2ccc(Cl)cc2)CC1` (centres undefined) [HOMOCHLORCYCLIZINE] showed an AC50 in experiment [1] of 12.9 µM.
As to `CC(=O)OCC(=O)[C@@]1(O)CC[C@H]2[C@@H]3CCC4=CC(=O)CC[C@]4(C)[C@H]3[C@@H](O)C[C@@]21C` [HYDROCORTISONE ACETATE], the AC50 in experiment [1] is above 30 µM.
Regarding `CC(COc1ccccc1)NC(C)C(O)c1ccc(O)cc1` (centres undefined) [ISOXSUPRINE], in experiment [1], the AC50 stood at 11.2 µM. That is a double-digit micromolar value.
On the same count and under the same terms, next, `O=C(CCC/C=C\C[C@@H]1[C@@H](CC[C@@H](O)CCc2ccccc2)[C@H](O)C[C@@H]1O)OCCCCO[N+](=O)[O-]` [LATANOPROSTENE BUNOD]: above 30 µM; `Cc1oc(=O)oc1COC(=O)[C@@H]1N2C(=O)[C@@H](NC(=O)[C@H](N)c3ccccc3)[C@H]2SC1(C)C` [LENAMPICILLIN]: above 30 µM.
`COc1ccc(OC)c(C(O)C(C)N)c1` (centres undefined) [METHOXAMINE] registered an AC50 in experiment [1] above 30 µM.
Consider `Cc1ccccc1N1C(=O)c2cc(S(N)(=O)=O)c(Cl)cc2NC1C` (centres undefined) [METOLAZONE], for which the AC50 on Adenosine receptor A2a is above 10 µM; in experiment [2] it was above 10 µM; in experiment [3], above 10 µM; at Progesterone receptor, above 10 µM; on D(3) dopamine receptor, above 30 µM.
Take `CC1(CCN2CCCCC2)C(=O)CCc2ccccc21` (centres undefined) [NEPINALONE]: the AC50 in experiment [1] is above 30 µM.
For the molecule `O=C(O)c1cccnc1Nc1cccc(C(F)(F)F)c1` [NIFLUMIC ACID], the half-maximal activity concentration (AC50) is above 10 µM at Adenosine receptor A2a; above 10 µM in experiment [2]; above 10 µM in experiment [3]; above 10 µM on Progesterone receptor; above 30 µM at D(3) dopamine receptor.
As to `COC(=O)C[C@](O)(CCCC(C)(C)O)C(=O)O[C@@H]1C(OC)=C[C@]23CCCN2CCc2cc4c(cc2[C@H]13)OCO4` [OMACETAXINE MEPESUCCINATE], in experiment [1], the half-maximal activity concentration (AC50) was above 30 µM.
Molecule `COc1cccc(C(=O)CCN[C@@H](C)[C@H](O)c2ccccc2)c1` [OXYFEDRINE] came in with a half-maximal activity concentration (AC50) in experiment [1] of 2.65 µM.
In turn, `CC[N+](C)(CC)CCOC(=O)C(O)(c1ccccc1)C1CCCCC1` (centres undefined) [OXYPHENONIUM] displayed a half-maximal activity concentration (AC50) in experiment [1] above 30 µM.
On the same count and under the same terms, next, `C[C@@H]1C[C@H]2[C@@H]3C[C@H](F)C4=CC(=O)C=C[C@]4(C)[C@H]3[C@@H](O)C[C@]2(C)[C@@]1(O)C(=O)CO` [PARAMETHASONE]: above 30 µM.
Still for that read-out and setting: under `CCC[C@H](N[C@@H](C)C(=O)N1[C@H](C(=O)O)C[C@@H]2CCCC[C@@H]21)C(=O)OCC` [PERINDOPRIL] stands above 30 µM; under `NNCCc1ccccc1` [PHENELZINE], 10.8 µM.
Take `N[C@@H](Cc1ccccc1)C(=O)O` [PHENYLALANINE]: in experiment [1], the concentration at half-maximal activity (AC50) was above 30 µM.
Molecule `CCCn1cnc2c1c(=O)n(CCCCC(C)=O)c(=O)n2C` [PROPENTOFYLLINE] yielded a half-maximal activity concentration (AC50) in experiment [1] above 30 µM.
In the case of `COC(=O)[C@H]1[C@H]2C[C@@H]3c4[nH]c5cc(OC)ccc5c4CCN3C[C@H]2C[C@@H](OC(=O)c2cc(OC)c(OC)c(OC)c2)[C@@H]1OC` [RESERPINE], the AC50 on Adenosine receptor A2a was above 30 µM; in experiment [2], above 10 µM; in experiment [3] it was above 10 µM; at Progesterone receptor it was above 10 µM; in experiment [1], 13.6 µM; on D(3) dopamine receptor it was above 30 µM.
With `Clc1ccc(C(Cn2ccnc2)OCc2csc3c(Cl)cccc23)c(Cl)c1` (centres undefined) [SERTACONAZOLE], half-maximal activity in experiment [1] (AC50) was put at 3.3 µM. In other words, the single-digit micromolar range.
Same read-out and setting: next, `CC(OCCN1CCCCCC1)(c1ccccc1)c1ccc(Cl)cc1` (centres undefined) [SETASTINE]: 5.82 µM; `COc1cc(C)c2c(Oc3cccc(C(F)(F)F)c3)c(OC)cc(NC(C)CCCN)c2n1` (centres undefined) [TAFENOQUINE]: 2.26 µM.
`CCCSc1nc(N[C@@H]2C[C@H]2c2ccc(F)c(F)c2)c2nnn([C@@H]3C[C@H](OCCO)[C@@H](O)[C@H]3O)c2n1` [TICAGRELOR] came in with an AC50 in experiment [1] of 14.8 µM.
As for `c1ccc2c(SC3=NCCN3)c[nH]c2c1` [TINAZOLINE], the AC50 in experiment [1] was found to be 5.56 µM.
`Cc1ccc(C(=O)C(C)CN2CCCCC2)cc1` (centres undefined) [TOLPERISONE] displayed a concentration at half-maximal activity (AC50) in experiment [1] above 30 µM.
In turn, `COc1ccc2c(C(=S)N(C)CC(=O)O)cccc2c1C(F)(F)F` [TOLRESTAT] gave a half-maximal activity concentration (AC50) in experiment [1] above 30 µM.

The values are drawn from ChEMBL document CHEMBL5291721, “A preclinical secondary pharmacology resource illuminates target-adverse drug reaction associations of marketed drugs” (Nat Commun, 2023).
